System: 83 tyrosine kinases
Experiment: Panel of 83 TR-FRET tyrosine kinase assays
Type: biochemical
Conditions: 83 tyrosine kinases tested; conditions of Example 1
Description: TR-FRET kinase assays are performed under standardized conditions: various individual kinases are incubated with 50 nM of kinase substrate BRB1 labeled with the TR-FRET acceptor dye ULight (PerkinElmer) and 200 micromolar ATP in 10 μL of kinase assay buffer (50 mM HEPES pH7.5, 10 mM MgCl2, 3 mM MnCl2, 1 mM EGTA, 2 mM DTT and 0.01% Tween-20) for 2 hours at room temperature. Reactions are stopped with EDTA, and anti-phospho-tyrosine antibodies (clone PT66) labeled with the TR-FRET europium chelate donor dye are added to a final concentration of 2 nM in a final volume of 20 μL. The TR-FRET signal emitted at 665 nm is read one hour after the addition of antibodies using a TR-FRET plate reader such as the Envision® Multilabel Plate reader (PerkinElmer). The emitted signal at 665 nm is proportional to the extent of peptide phosphorylation, Control reactions indicative of background are performed excluding ATP from the reaction.
Assay conditions are identical to those used described for FIG. 1.
The BRB2 peptide is tested with 83 tyrosine kinases in assay conditions identical to those used for BRB1 in Example 1. Data obtained with BRB2 indicate that the peptide is phosphorylated by 65 kinases out of 83 (78%), with signal to noise ratio of >3.

Number of kinases out of 83 that phosphorylated the peptide with signal to noise ratio of >3: 65
Percentage of 83 kinases that phosphorylated the peptide with signal to noise ratio of >3: 78%
Sequence: CGG E AYE AYE AYE AYA EYE ARR (CGGEAYEAYEAYEAYAEYEARR; tyrosine kinase substrate peptide) [BRB2]
